Patent US8466113B2, “4-isopropylphenyl glucitol compounds as SGLT1 inhibitors” (Taisho Pharmaceutical Co., Ltd., priority 2009, dated 2013)

Assay: Kidney concentrations until one week after single oral administration
Format: in vivo
Details: Sprague-Dawley (SD/IGS), rat, male Sprague-Dawley rats; for concentration at 24 h / concentration at 72 h / concentration at 168 h: single oral 1 mg/kg
Description: (1) Changes in Kidney Concentrations of Compounds Disclosed in WO07/136116 Until One Week After Oral Administration
SD/IGS rats at 7 weeks of age (male, non-fasting, Charles River Laboratories Japan Inc.) were orally administered with compound 10 or 33 (1 mg/kg) or compound 11 (0.3 mg/kg) prepared in a 0.5% aqueous CMC solution. At 24, 72 and 168 hours after drug administration, the rats were exsanguinated via the postcaval vein under ether anesthesia, and their kidneys were excised after they were confirmed to be euthanized. After the tissue surface was washed with physiological saline, each tissue was measured for its weight and homogenized in 4 volumes of purified water under ice cooling. To each homogenate, an acetonitrile/methanol solution containing an internal standard substance was added to remove proteins, and the supernatant was then subjected to LC-MS/MS (Applied Biosystems API3000). Drug-derived ions generated by electrospray ionization in positive ion mode were detected by selective reaction monitoring. The peak area of the resulting extracted ion chromatogram was analyzed by the internal standard method to calculate the drug concentration in the homogenate.
The internal standard substance used for compounds 10 and 33 was (1S)-1,5-anhydro-1-[5-(4-ethoxybenzyl)-2-methoxy-4-methylphenyl]-1-thio-D-glucitol,ethyl-D5, while the internal standard substance used for compound 11 was compound 11 (trishydroxymethyl-D6; —C(CD2OH)3).

[1] = read-out: Concentration of compounds in kidney After 1 day
[2] = read-out: Concentration of compounds in kidney After 3 days
[3] = read-out: Concentration of compounds in kidney After 7 days

concentration at 24 h [1] | concentration at 72 h [2] | concentration at 168 h [3] | concentration at 1 day (single oral 0.3 mg/kg, mean ± S.D., read-out: Concentration of compounds in kidney After 1 day) | concentration at 3 days (single oral 0.3 mg/kg, mean ± S.D., read-out: Concentration of compounds in kidney After 3 days) | concentration at 7 days (single oral 0.3 mg/kg, mean ± S.D., read-out: Concentration of compounds in kidney After 7 days) | Compound
167 ± 36.3 ng/g | 124 ± 21.2 ng/g | 53.8 ± 7.61 ng/g |  |  |  | Cc1cc(O)c([C@@H]2O[C@H](CO)[C@@H](O)[C@H](O)[C@H]2O)cc1Cc1ccc(CCNC(=O)NC(C)(C)CO)cc1 [compound 10]
 |  |  | 63.5 ± 20.1 ng/g | 67.3 ± 3.15 ng/g | 48.7 ± 18.3 ng/g | Cc1cc(O)c([C@@H]2O[C@H](CO)[C@@H](O)[C@H](O)[C@H]2O)cc1Cc1ccc(CCNC(=O)NC(CO)(CO)CO)cc1 [compound 11]
29.8 ± 6.79 ng/g | 25.5 ± 8.68 ng/g | 16.2 ± 3.11 ng/g |  |  |  | Cc1cc(O)c([C@@H]2O[C@H](CO)[C@@H](O)[C@H](O)[C@H]2O)cc1Cc1ccc(CCNC(=O)NC2CCN(Cc3ccccc3)CC2)cc1 [compound 33]
